Source: patent publication EP0979823B1, “NOVEL AMIDE COMPOUNDS AND DRUGS CONTAINING THE SAME” (Kowa Company Ltd., priority 1997, dated 1999)
Like-named read-outs stand apart in the source and are kept apart here.

Experiments:
[1] = test system: J774 cells; test: ACAT inhibitory activity (anti-foamation activity) in J774 cells; assay type: cell-based; conditions: for IC50: J774 cells, 10 µg/ml 25-OH cholesterol, 18 hours, cholesterol ester = TC minus FC per protein, read-out: Enzyme (J774) IC50; for IC50 (HepG2) / IC50 (J774): ratio HepG2 / J774
Protocol: (§1) J774 cells or HepG2 cells were spread on a 24-well plate. The cells were incubated in a 5% CO2 incubator at 37°C for 24 hours using DMEM in the case of the J774 cells and a MEM culture solution in the case of the HepG2 cells (both containing 10% fetal calf serum).
(§2) The medium was removed, and the residue was washed twice with PBS, then extracted with 1.5 ml of a hexane:isopropanol (3:2) mixture, and concentrated to dryness. The extract was dissolved in 0.2 ml of isopropanol containing 10% Triton X-100. Total cholesterol (TC) and free cholesterol (FC) were measured using Cholesterol E Test Wako (supplied by Wako Pure Chemical Industries, Ltd.) and Free Cholesterol E Test Wako (supplied by Wako Pure Chemical Industries, Ltd.).
(§3) The cell extract residue was solubilized in 0.25 ml of 2N NaOH at 37°C for 30 minutes, and the protein amount was measured using BCA Protein Assay Reagent (Pierce).
(§4) The amount of cholesterol based on the protein was calculated from the difference between TC and FC, and an IC50 value was obtained from the calculation in contrast with the control.

[2] = test system: HepG2 cells; test: ACAT inhibitory activity (anti-foamation activity) in HepG2 cells; assay type: cell-based; conditions: 10 µg/ml 25-OH cholesterol, 18 hours, cholesterol ester = TC minus FC per protein, read-out: Enzyme (HepG2) IC50
Protocol: as §1, §2, §3, §4

[3] = target: ACAT enzyme from the blood vessel wall (Oryctolagus cuniculus, UniProt G1SUQ0); test: ACAT inhibitory activity, microsomal enzyme from the blood vessel wall (breast aorta); assay type: biochemical, rabbit; conditions: for IC50 (B‡) / IC50 (A‡): ratio small intestine / blood vessel wall
Protocol: A microsome was prepared from the breast aorta of a rabbit which had been fed with 1% cholesterol food for 8 weeks in a usual manner, and suspended in a 0.15 M phosphate buffer solution (pH 7.4) to form an enzyme solution. An enzyme solution derived from the small intestine was prepared from the small intestine of a rabbit that had eaten a normal food.
To this solution were added 10 µl of the enzyme solution, and the mixture was reacted at 37°C for 5 minutes (for 3 minutes in the case of the small intestine). Then, 3 ml of a chloroform/methanol (2/1) mixture and 0.5 ml of 0.04 N hydrochloric acid were added thereto to stop the reaction. The lipid was then extracted. The solvent layer was concentrated to dryness, and dissolved in hexane. The solution was spotted on a TLC plate (supplied by Merck Co.). The elution was conducted with a hexane:ether:acetic acid (75:25:1) mixture.
The radioactivity of the resulting cholesterol ester fraction was measured using BAS 2000 (supplied by Fuji Photo Film Co., Ltd.). An IC50 value was obtained from the calculation in contrast with a control containing only DMSO.

ACAT enzyme from the blood vessel wall, sequence (G1SUQ0 entry or part of it): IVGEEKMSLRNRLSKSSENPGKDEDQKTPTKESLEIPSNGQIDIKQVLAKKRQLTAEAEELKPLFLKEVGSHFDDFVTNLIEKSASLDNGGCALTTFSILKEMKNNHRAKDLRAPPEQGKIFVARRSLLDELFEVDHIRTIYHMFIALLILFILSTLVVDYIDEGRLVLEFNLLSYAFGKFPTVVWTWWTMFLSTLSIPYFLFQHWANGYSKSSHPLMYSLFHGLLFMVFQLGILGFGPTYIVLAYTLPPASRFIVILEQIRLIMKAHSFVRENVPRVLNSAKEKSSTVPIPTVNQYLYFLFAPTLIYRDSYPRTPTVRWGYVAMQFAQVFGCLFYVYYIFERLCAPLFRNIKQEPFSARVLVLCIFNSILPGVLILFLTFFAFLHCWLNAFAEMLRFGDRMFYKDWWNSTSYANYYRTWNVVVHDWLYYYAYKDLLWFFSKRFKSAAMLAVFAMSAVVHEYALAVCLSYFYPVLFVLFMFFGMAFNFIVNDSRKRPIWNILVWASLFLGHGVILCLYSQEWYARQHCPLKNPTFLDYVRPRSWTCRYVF

Structure (SMILES)	IC50 ([1]; Mus musculus) [nM]	IC50 (HepG2) / IC50 (J774) [1]	IC50 ([2]; Homo sapiens) [nM]	IC50 [1] [nM]	IC50 [2] [nM]	IC50 ([3]; A‡: the blood vessel wall, microsome from breast aorta of rabbit fed 1% cholesterol food for 8 weeks, 14C-Oleoyl-CoA 40 µM, 37°C, 5 minutes) [nM]	IC50 (B‡) / IC50 (A‡) [3]
CSc1cc(C)nc(SC)c1NC(=O)CCCCCSc1nc2ccccc2s1 [Compound No. 795, 6-(benzothiazol-2-ylthio)-N-[2,4-bis(methylthio)-6-methyl-3-pyridyl]hexanamide]	50	7.0	350				
CSc1cc(C)nc(SC)c1NC(=O)CCCCCCCSc1nc2ccccc2s1 [Compound No. 797, 8-(benzthiazol-2-ylthio)-N-[2,4-bis(methylthio)-6-methyl-3-pyridyl)octanamide]	3.6	8.1	29				
CCSc1cc(C)nc(SCC)c1NC(=O)CSc1nc2ccccc2o1 [Compound No. 811, 2-(benzoxazol-2-ylthio)-N-[2,4-bis(ethylthio)-6-methyl-3-pyridyl]acetamide]	50	36.0	1800				
CCSc1cc(C)nc(SCC)c1NC(=O)CCCCCSc1nc2ccccc2o1 [Compound No. 815, 6-(benzoxazol-2-ylthio)-N-[2,4-bis(ethylthio)-6-methyl-3-pyridyl]hexanamide]	120	21.7	2600				
CCSc1cc(C)nc(SCC)c1NC(=O)CCCCCCCCSc1nc2ccccc2o1 [Compound No. 818, 9-(benzoxazol-2-ylthio)-N-[2.4-bis(ethylthio)-6-methyl-3-pyridyl]nonanamide]	62	1.0	63				
CCSc1cc(C)nc(SCC)c1NC(=O)CSc1nc2ccccc2[nH]1 [Compound No. 831, 2-(benzimidazol-2-ylthio)-N-[2,4-bis(ethylthio)-6-methyl-3-pyridyl]acetamide]	57	94.7	5400				
CSc1cc(C)nc(SC)c1NC(=O)CCCCCCCSc1nc2cccc(C(F)(F)F)c2o1 [Compound No. 1253, 8-(7-trifluoromethylbenzoxazol-2-ylthio)-N-[2,4-bis(methylthio)-6-methyl-3-pyridyl]octanamide]	4.1	1.1	4.4				
CCSc1cc(C)nc(SCC)c1NC(=O)CCCCCCSc1nc2c(C)c(Cl)cc(C(C)C)c2o1 [Compound No. 1282, 7-(5-chloro-7-isopropyl-4-methylbenzoxazol-2-ylthio)-N-[2,4-bis(ethylthio)-6-methyl-3-pyridyl]heptanamide]	3.2	1.9	6.2				
Cc1cc(SC(C)C)c(NC(=O)CCCCCCSc2nc3cccc(C(F)(F)F)c3o2)c(SC(C)C)n1 [Compound No. 1292, 7-(7-trifluoromethylbenzoxazol-2-ylthio)-N-[2,4-bis(isopropylthio)-6-methyl-3-pyridyl] heptanamide]		11.1		2.7	30		
Cc1cc(SC(C)C)c(NC(=O)CCCCCCSc2nc3c(C)c(Cl)cc(C(C)C)c3o2)c(SC(C)C)n1 [Compound No. 1302, 7-(5-chloro-7-isopropyl-4-methylbenzoxazol-2-ylthio)-N-[2,4-bis(isopropylthio)-6-methyl-3-pyridyl]heptanamide]	2.1	7.1	15				
CC(C)c1cccc(C(C)C)c1NC(=O)C(C)(C)CCCOc1ccc2c(c1)C=C(c1nccn1C)C(CCc1ccc(F)cc1)O2 (centres unmarked) [Control 1, 5-[2-(2-(4-fluorophenyl)ethyl)-3-(1-methyl-1H-imidazol-2--yl)-2H-1-benzopyran-6-yl]oxy-2,2-dimethyl-N-(2,6-diisopropylphenyl)pentanamide, reference compound]	560	9.5	5300			450	1.9
CCCCCCCCCN(CC(C)(C)C)C(=O)N[C@H]1CCCC[C@@H]1OC(=O)CCNC(=O)C1OC(C)(C)OCC1(C)C (stereo partly drawn) [Control 3, N-(2,2,5,5-tetramethyl-1,3-dioxan-4-ylcarbonyl)-β-alanine 2 (S)-[N'-(2,2-dimethylpropyl)-N'-nonylureido]-1(S)-cyclohexyl ester, reference compound]	320		1300				
CCCCCCCN(CCCCCSc1nc(-c2ccccc2)c(-c2ccccc2)[nH]1)c1nc2ccccc2o1 [Control 4, [5-(4,5-diphenyl-1H-imidazol-2-ylthio)pentyl]-N-heptyl-2-benzoxazolamie, reference compound]	120	6.3	750				1.4
CC(C)c1cccc(C(C)C)c1NC(=O)CCCCCSc1nc2ccccc2o1 [Control 5, 6-(benzoxazol-2-ylthio)-N-(2,6-diisopropylphenyl)hexanamide, reference compound]	1900	0.8	1600				
Cc1cc(SC(C)C)c(NC(=O)CCCCCCCCSc2nc3cccc(C(F)(F)F)c3o2)c(SC(C)C)n1 [compound 1294, 9-(7-trifluoromethylbenzoxazol-2-ylthio)-N-[2,4-bis(isopropylthio)-6-methyl-3-pyridyl] nonanamide]		0.6		4.2	2.4		
